Measured values: US4317824A, “Derivatives of quinoxaline-1,4-dioxides” (Abic, Ltd., priority 1976, dated 1982)
≈ marks a conversion by molar mass, not a printed value.

Legend:
Mycoplasma gallisept = assay: antimicrobial activity, minimal inhibitory concentration, Mycoplasma gallisept; type: cell-based
Description: (§1) The antimicrobial activity of some compounds according to the present invention was measured and the results are shown in the following Tables. The activity is indicated as the minimal inhibitory concentration in μg/ml.

Salm. Typh. = assay: antimicrobial activity, minimal inhibitory concentration, Salm. Typh.; type: cell-based; details: read-out: minimal inhibitory concentration
Description: as §1

E. Coli [1] = assay: Systemic E. Coli infection in mice; type: in vivo; details: systemic E. Coli infection, 2,5 mg × 2 per day
Description: (§2) Some compounds of general formula Id were tested also in vivo.

E. Coli [2] = assay: E. Coli infections chick; type: in vivo; details: 50 mg/kg
Description: as §2

St. aur = assay: Systemic St. aur infection in mice; type: in vivo
Description: as §2

Proteus = assay: antimicrobial activity, minimal inhibitory concentration, Proteus; type: cell-based
Description: as §1

Staph. Aur. = assay: antimicrobial activity, minimal inhibitory concentration, Staph. Aur.; type: cell-based
Description: as §1

B. Cereus = assay: antimicrobial activity, minimal inhibitory concentration, B. Cereus; type: cell-based; details: Bacillus cereus
Description: as §1

E. Coli [3] = assay: antimicrobial activity, minimal inhibitory concentration, E. Coli; type: cell-based; details: Escherichia coli
Description: as §1

Crypt. Neof. = assay: antimicrobial activity, minimal inhibitory concentration, Crypt. Neof.; type: cell-based
Description: as §1

Aspergillus Niger = assay: antimicrobial activity, minimal inhibitory concentration, Aspergillus Niger; type: cell-based
Description: as §1

Trichophyt. Rubrum = assay: antimicrobial activity, minimal inhibitory concentration, Trichophyt. Rubrum; type: cell-based
Description: as §1

Cand. Alb. = assay: antimicrobial activity, minimal inhibitory concentration, Cand. Alb.; type: cell-based
Description: as §1

E. Coli [4] = assay: U. Tract infections in mice (E. Coli); type: in vivo; details: U. Tract infections (E. Coli), 2,5 mg × 10 days
Description: as §2

Pseud. Aur. = assay: antimicrobial activity, minimal inhibitory concentration, Pseud. Aur.; type: cell-based
Description: as §1

[5] = Acute oral LD50 in chicks; details: chicken, in vivo
in vivo = details: mouse, po
[6] = growth promotion experiment with male turkeys for 4 weeks; type: in vivo; details: 50 g/ton in the feed, P<0.001
Excerpt: The results were statistically significant (P<0.001).

Shig. Flex. = assay: antimicrobial activity, minimal inhibitory concentration, Shig. Flex.; type: cell-based
Description: as §1

B. Subtilis = assay: antimicrobial activity, minimal inhibitory concentration, B. Subtilis; type: cell-based; details: Bacillus subtilis
Description: as §1

[7] = systemic St. aur infection, 2,5 mg × 2 per day

## CNC(=NO)c1c[n+]([O-])c2ccccc2[n+]1[O-] [Example 18 (methylamino), 2-(N-methylamino)-carboxaldoxime-quinoxaline-1,4-dioxide]
Mycoplasma gallisept
  MIC: 10 to 20 µg/mL (≈ 42.7 to 85.4 µM)
Salm. Typh.
  MIC: 25 µg/mL (≈ 107 µM)
E. Coli [1]
  Protection: + (indicates protection >80%)
E. Coli [2]
  Protection: + (indicates protection >80%)
St. aur; [7]
  Protection: + (indicates protection >80%)
Proteus
  MIC: 11 to 100 µg/mL (≈ 47 to 427 µM)
Staph. Aur.
  MIC: 10 µg/mL (≈ 42.7 µM)
B. Cereus
  MIC: 25 µg/mL (≈ 107 µM)
E. Coli [3]
  MIC: 25 µg/mL (≈ 107 µM)

## CCNC(=NO)c1c[n+]([O-])c2ccccc2[n+]1[O-] [Example 18, 2-(N-ethylamino)-carboxamidoxime-quinoxaline-1,4-dioxide]
Mycoplasma gallisept
  MIC: 10 to 25 µg/mL (≈ 40.3 to 101 µM)
Salm. Typh.
  MIC: 25 µg/mL (≈ 101 µM)
E. Coli [1]
  Protection: + (indicates protection >80%)
St. aur; [7]
  Protection: +/- (indicates protection 50-80%)
Proteus
  MIC: 11 to 100 µg/mL (≈ 44.3 to 403 µM)
Staph. Aur.
  MIC: 10 µg/mL (≈ 40.3 µM)
B. Cereus
  MIC: 25 µg/mL (≈ 101 µM)
E. Coli [3]
  MIC: 25 µg/mL (≈ 101 µM)

## CCCNC(=NO)c1c[n+]([O-])c2ccccc2[n+]1[O-] [Example 20, 2-(propylamino)-carboxamidoxime-quinoxaline-1,4-dioxide]
Mycoplasma gallisept
  MIC: 25 to 50 µg/mL (≈ 95.3 to 191 µM)
Crypt. Neof.
  MIC: 11 to 100 µg/mL (≈ 41.9 to 381 µM)
Salm. Typh.
  MIC: 25 µg/mL (≈ 95.3 µM)
Aspergillus Niger
  MIC: 11 to 100 µg/mL (≈ 41.9 to 381 µM)
Trichophyt. Rubrum
  MIC: 11 to 100 µg/mL (≈ 41.9 to 381 µM)
E. Coli [1]
  Protection: + (indicates protection >80%)
St. aur; systemic St. aur infection, 5 mg × 2 per day
  Protection: - (indicates protection <50%)
Cand. Alb.
  MIC: 11 to 100 µg/mL (≈ 41.9 to 381 µM)
E. Coli [4]
  Protection: + (indicates protection >80%)
Proteus
  MIC: 11 to 100 µg/mL (≈ 41.9 to 381 µM)
Staph. Aur.
  MIC: 10 µg/mL (≈ 38.1 µM)
B. Cereus
  MIC: 25 µg/mL (≈ 95.3 µM)
Pseud. Aur.
  MIC: 10 µg/mL (≈ 38.1 µM)
E. Coli [3]
  MIC: 25 µg/mL (≈ 95.3 µM)

## CN(C)NC(=NO)c1c[n+]([O-])c2ccccc2[n+]1[O-] [Example 21e, 2-(α-N-dimethyl-hydrazino)-carboxaldoxime-quinoxaline-1,4-dioxide]
Mycoplasma gallisept
  MIC: 25 µg/mL (≈ 95 µM)
Salm. Typh.
  MIC: 100 µg/mL (≈ 380 µM)
Staph. Aur.
  MIC: 10 to 25 µg/mL (≈ 38 to 95 µM)
B. Cereus
  MIC: 10 µg/mL (≈ 38 µM)
E. Coli [3]
  MIC: 2 to 10 µg/mL (≈ 7.6 to 38 µM)

## CCN(CC)C(=NO)c1c[n+]([O-])c2ccccc2[n+]1[O-] [Example 22, 2-(N-diethylamino)-carboxaldoxime-quinoxaline-1,4-dioxide]
Salm. Typh.
  MIC: 50 µg/mL (≈ 181 µM)
Staph. Aur.
  MIC: 11 to 100 µg/mL (≈ 39.8 to 362 µM)
B. Cereus
  MIC: 11 to 100 µg/mL (≈ 39.8 to 362 µM)
Pseud. Aur.
  MIC: 10 µg/mL (≈ 36.2 µM)
E. Coli [3]
  MIC: 50 µg/mL (≈ 181 µM)

## CC(=O)NNC(=NO)c1c[n+]([O-])c2ccccc2[n+]1[O-] [Example 24, 2-N-(acetyl-hydrazino)-carboxaldoxime-quinoxaline-1,4-dioxide]
Salm. Typh.
  MIC: 11 to 100 µg/mL (≈ 39.7 to 361 µM)
Trichophyt. Rubrum
  MIC: 11 to 100 µg/mL (≈ 39.7 to 361 µM)
E. Coli [1]
  Protection: + (indicates protection >80%)
St. aur; [7]
  Protection: + (indicates protection >80%)
Proteus
  MIC: 11 to 100 µg/mL (≈ 39.7 to 361 µM)
Staph. Aur.
  MIC: 10 µg/mL (≈ 36.1 µM)
B. Cereus
  MIC: 11 to 100 µg/mL (≈ 39.7 to 361 µM)
E. Coli [3]
  MIC: 11 to 100 µg/mL (≈ 39.7 to 361 µM)

## [O-][n+]1cc(C(=NO)NN2CCOCC2)[n+]([O-])c2ccccc21 [Example 25, 2-(N-morpholinoamino)-carboxamidoxime-quinoxaline-1,4-dioxide]
[5]
  LD50: 428 mg/kg
In vivo
  LD50: 1240 mg/kg

## CN1CCN(C(=NO)c2c[n+]([O-])c3ccccc3[n+]2[O-])CC1 [Example 26a, 2-(4'-methyl-piperazino)-carboxaldoxime-quinoxaline-1,4-dioxide]
[5]
  LD50: 400 mg/kg
[6]
  increase in weight gain: 15.6%
In vivo
  LD50: 1240 mg/kg

## CN(C)C(=NO)c1c[n+]([O-])c2ccccc2[n+]1[O-] [Example 30, 2-(dimethylamino)-carboxaldoxime-quinoxaline-1,4-dioxide]
E. Coli [1]
  Protection: + (indicates protection >80%)
E. Coli [2]
  Protection: + (indicates protection >80%)
St. aur; [7]
  Protection: +/- (indicates protection 50-80%)
E. Coli [4]
  Protection: + (indicates protection >80%)
Staph. Aur.
  MIC: 10 µg/mL (≈ 40.3 µM)
B. Cereus
  MIC: 50 µg/mL (≈ 201 µM)
E. Coli [3]
  MIC: 10 µg/mL (≈ 40.3 µM)

## CCC(=O)ON=C(Cl)c1c[n+]([O-])c2ccccc2[n+]1[O-] [Y = H, R = CH2CH3]
Shig. Flex.
  MIC: 11 to 100 µg/mL (≈ 37.2 to 338 µM)
Salm. Typh.
  MIC: 25 µg/mL (≈ 84.6 µM)
B. Subtilis
  MIC: 11 to 100 µg/mL (≈ 37.2 to 338 µM)
Staph. Aur.
  MIC: 10 µg/mL (≈ 33.8 µM)
B. Cereus
  MIC: 25 µg/mL (≈ 84.6 µM)
E. Coli [3]
  MIC: 25 µg/mL (≈ 84.6 µM)

## [O-][n+]1cc(C(=NO)NN2CCOCC2)[n+]([O-])c2ccccc21 [drawing 5]
Trichophyt. Rubrum
  MIC: 1 µg/mL (≈ 3.28 µM)
B. Subtilis
  MIC: 11 to 100 µg/mL (≈ 36 to 328 µM)
Staph. Aur.
  MIC: 11 to 100 µg/mL (≈ 36 to 328 µM)

## CN1CCN(C(=NO)c2c[n+]([O-])c3ccccc3[n+]2[O-])CC1 [drawing 6]
Mycoplasma gallisept
  MIC: 10 µg/mL (≈ 33 µM)
Proteus
  MIC: 11 to 100 µg/mL (≈ 36.3 to 330 µM)
Staph. Aur.
  MIC: 25 µg/mL (≈ 82.4 µM)
B. Cereus
  MIC: 25 µg/mL (≈ 82.4 µM)
Pseud. Aur.
  MIC: 11 to 100 µg/mL (≈ 36.3 to 330 µM)
E. Coli [3]
  MIC: 25 µg/mL (≈ 82.4 µM)

## [O-][n+]1cc(C(=NO)NN2CCOCC2)[n+]([O-])c2ccccc21 [drawing 8]
E. Coli [1]
  Protection: + (indicates protection >80%)
E. Coli [2]
  Protection: - (indicates protection <50%)
St. aur; [7]
  Protection: + (indicates protection >80%)
